The experiment has as its target T1, FLT3 (Homo sapiens, UniProt P36888).
T1 construct: expressed in transfected cells; host or cells: yeast
T1 sequence (P36888 27-993): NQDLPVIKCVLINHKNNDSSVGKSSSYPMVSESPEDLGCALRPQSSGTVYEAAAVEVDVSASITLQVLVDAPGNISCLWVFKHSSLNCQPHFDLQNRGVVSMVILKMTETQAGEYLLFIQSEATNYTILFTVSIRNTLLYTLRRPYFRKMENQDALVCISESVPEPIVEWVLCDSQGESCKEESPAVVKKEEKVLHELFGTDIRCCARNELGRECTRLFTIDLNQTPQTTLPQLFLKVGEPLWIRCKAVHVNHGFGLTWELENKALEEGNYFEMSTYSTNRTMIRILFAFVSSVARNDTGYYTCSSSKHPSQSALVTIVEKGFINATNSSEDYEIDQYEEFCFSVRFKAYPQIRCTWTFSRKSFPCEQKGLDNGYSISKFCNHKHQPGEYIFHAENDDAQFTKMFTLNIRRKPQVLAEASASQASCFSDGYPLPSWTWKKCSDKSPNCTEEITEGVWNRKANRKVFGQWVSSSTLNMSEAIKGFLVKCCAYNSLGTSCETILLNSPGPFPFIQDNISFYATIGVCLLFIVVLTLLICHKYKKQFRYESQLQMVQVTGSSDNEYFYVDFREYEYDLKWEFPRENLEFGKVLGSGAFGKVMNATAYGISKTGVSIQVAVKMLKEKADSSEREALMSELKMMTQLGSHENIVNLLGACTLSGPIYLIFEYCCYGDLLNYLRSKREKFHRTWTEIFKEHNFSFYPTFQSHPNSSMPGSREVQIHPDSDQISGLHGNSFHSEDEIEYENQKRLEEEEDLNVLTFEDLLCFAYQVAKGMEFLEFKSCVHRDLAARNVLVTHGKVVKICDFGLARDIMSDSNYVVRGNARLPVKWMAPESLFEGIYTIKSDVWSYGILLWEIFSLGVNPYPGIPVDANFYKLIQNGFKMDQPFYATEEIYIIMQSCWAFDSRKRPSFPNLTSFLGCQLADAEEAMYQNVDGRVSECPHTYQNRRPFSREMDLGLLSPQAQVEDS
As to the kind of experiment: Yeast growth assay, specificity profiling. The experiment is classed as cell-based. Further details: key: “−” indicates no growth restoration i.e. no activity against the particular kinase; “+”, “++”, and “+++” indicate activity detected by restoration of growth, classified into three categories of potency; “+”, “++”, and “+++” indicate activity detected by restoration of growth, classified into three categories of potency; “+”, “++”, and “+++” indicate activity detected by restoration of growth, classified into three categories of potency. The settings on record: 7 concentrations between 0.2 and 100 μM. The method in brief: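 Compounds titrated at 7 concentrations spanning 0.2 to 100 μM were tested on yeast whose plasmid-borne RTK, induced by galactose after glucose repression, inhibits growth. Categories −, +, ++, +++ reflect maximal growth recovery and the concentration achieving it.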

Turning to `Cc1nccn2c(Nc3cccc(Cl)c3)c(-c3ccccc3)nc12` [compound 3, (3-Chloro-phenyl)-(8-methyl-2-phenyl-imidazo[1,2-a]pyrazin-3-yl)-amine], the FLT3 growth restoration entry is recorded as “−”.
Take `COc1cccc(-c2nc3cnccn3c2Nc2cccc(Cl)c2)c1` [compound 7, (3-Chloro-phenyl)-[2-(3-methoxy-phenyl)-imidazo[1,2-a]pyrazin-3-yl]-amine]: the FLT3 growth restoration result was “−”.
For the molecule `Brc1cccc(Nc2c(-c3ccccc3)nc3cnccn23)c1` [compound 14, (3-Bromo-phenyl)-(2-phenyl-imidazo[1,2-a]pyrazin-3-yl)-amine], the FLT3 growth restoration result is listed as “−”.
With `Clc1ccc(Nc2c(-c3ccccc3)nc3cnccn23)cc1` [compound 16, (4-Chloro-phenyl)-(2-phenyl-imidazo[1,2-a]pyrazin-3-yl)-amine], the FLT3 growth restoration entry was “−”.
As for `c1ccc(Nc2c(-c3ccccc3)nc3cnccn23)cc1` [compound 23, Phenyl-(2-phenyl-imidazo[1,2-a]pyrazin-3-yl)-amine], the FLT3 growth restoration entry was “−”.
For the molecule `Cc1cccc(Nc2c(-c3ccccc3)nc3cnccn23)c1` [compound 34, (2-Phenyl-imidazo[1,2-a]pyrazin-3-yl)-m-tolyl-amine], the FLT3 growth restoration result was “−”.
On to `Clc1cccc(Nc2c(-c3ccccc3)nc3cnccn23)c1` [compound 35, (3-Chloro-phenyl)-(2-phenyl-imidazo[1,2-a]pyrazin-3-yl)-amine], for which the FLT3 growth restoration result was “−”.
As for `Cc1nccn2c(Nc3ccccc3)c(-c3ccccc3)nc12` [compound 39, (8-Methyl-2-phenyl-imidazo[1,2-a]pyrazin-3-yl)-phenyl-amine], the FLT3 growth restoration result is “−”.
Regarding `Cc1cccc(Nc2c(-c3ccccc3)nc3c(C)nccn23)c1` [compound 43, (8-Methyl-2-phenyl-imidazo[1,2-a]pyrazin-3-yl)-m-tolyl-amine], the FLT3 growth restoration result is recorded as “−”.
As to `Cc1nccn2c(Nc3cccc(F)c3)c(-c3ccccc3)nc12` [compound 44, (3-Fluoro-phenyl)-(8-methyl-2-phenyl-imidazo[1,2-a]pyrazin-3-yl)-amine], the FLT3 growth restoration result is recorded as “−”.
With `Cc1nccn2c(Nc3ccc(F)c(F)c3)c(-c3ccccc3)nc12` [compound 45, (3,4-Difluoro-phenyl)-(8-methyl-2-phenyl-imidazo[1,2-a]pyrazin-3-yl)-amine], the FLT3 growth restoration entry is “−”.

Values taken from US20070149535A1, “Protein kinase inhibitors” (ONCALIS AG, priority 2004, published 2007).
